# Where no end group is shown, it is not given here.
# Tested on: BRI1 (BRI1-ECD)
# Assay: Yeast two-hybrid with BRI1-ECD
# Assay type: binding, Arabidopsis thaliana
# Settings: yeast AH109, medium lacking Leu, Trp, His
# Text: Fig 6 AtRALF1 interacts physically with BAK1 protein. (A) The active AtRALF1 peptide interacts with the extracellular domain (ECD) of BAK1 (BAK1-ECD) in yeast. The AtRALF1 protein fused to the GAL4 DNA-binding domain (AtRALF1-pGBKT7) was used as bait to test its interaction with the extracellular domain of the proteins fused to the GAL4 activation domain (pGADT7): BAK1 (BAK1-ECD), BAK7 (BAK7-ECD), BRI1 (BRI1-ECD) and FLS2 (FLS2-ECD). (B) Blueprint showing the truncated proteins from the extracellular domain of BAK1 tested in the two-hybrid assay. The extracellular domain of BAK1 comprises leucine zippers (LZ), 5 leucine rich-regions (LRRs) and a proline-rich region (pro-rich). (C) AtRALF1-pGBKT7 was used as bait to test its interaction with truncated proteins fused to the GAL4 activation domain (pGADT7). […] HA-BAK1-ECD was detected with an anti-HA antibody. AtRALF1 was detected with an anti-RALF antibody. […] BAK1-GFP was detected with an anti-GFP antibody. […]
# The coding regions of the mature peptides AtRALF1 and AtRALF34 were amplified from Arabidopsis genomic DNA and fused to the GAL4 DNA-binding domain and the MYC epitope tag using the NdeI/BamHI sites in the pGBKT7 (Clontech) vector. […] The proteins fused to the HA and MYC epitope tags were detected by protein blotting. […]
substance,measurement,value
AtRALF1: root-specific RALF isoform in Arabidopsis; recombinant peptide hormone produced in E. coli (ATTKYISYQSLKRNSVPCSRRGASYYNCQNGAQANPYSRGCSKIARCRS; ends and bridges not checked; cysteine pairing not given here),interaction with BRI1-ECD (Y2H complementation),able to complement only the BAK1-ECD construct

# — article PMC5656322, “BAK1 is involved in AtRALF1-induced inhibition of root cell expansion” (PLoS Genetics, 2017)
